Source: patent publication US20090118332A1, “Therapeutic Agents - 551” (AstraZeneca AB, priority 2006, published 2009)

Target: T1, human Fatty Acid Synthase (Homo sapiens, UniProt P49327)
T1 construct: made in house
Assay: Human FAS enzyme assay (decrease in NADPH fluorescence)
Format: biochemical
Conditions: % inhibition at a concentration of 100 μmolar
Description: Human and Rat FAS Enzyme Assay.
Fatty acid synthase is an enzyme complex that harbours seven enzymatic activities catalysing the reductive synthesis of long chain fatty acids from acetyl CoA and malonyl CoA to palmitate. When acetyl CoA and malonyl CoA are forming palmitate NADPH is consumed forming NADP. Since NADPH is fluorescent but not NADP the reaction can be measured by analysing the decrease in fluorescence.
Compounds were added to a black 384 well plate (Matrix) in a volume of 5 μl consisting of 20% DMSO and 80% Tris buffer pH 7.5, at a top concentration of 1 mM. NADPH, 30 μl of 166.6 μM, formulated in assay buffer (0.1M Tris ph7.5, 0.1 mM EDTA, 1 mM glutathione, 0.05% BSA), was then added to all of the wells of the plate. Fatty acid synthase Human or rat enzyme (0.4 μg, produced in house), dissolved in 20 mM Tris/HCl pH 7.5, 5 mM BOG, 1 mM TCEP, 10% glycerol, 1 mM EDTA, 150 mM NaCl, was then added to the plate in a volume of 10 μl. Enzyme was added to all but the last two columns of the plate, to which, 10 μl of assay buffer was added (0.1M Tris ph7.5, 0.1 mM EDTA, 1 mM glutathione, 0.05% BSA) to provide a no enzyme assay control. Following a 15-minute incubation period, at room temperature, the plates were read on an Envision plate reader using 340 nm excitation and 460 nm emission filters. This served as a time zero background read. Substrates (an equal mix of both malonyl and acetyl CoA) were then added to the plates in a total volume of 5 μl. The concentrations of malonyl and acetyl CoA in the mixture were 500 μM and 150 μM respectively. Both were prepared as 10 mM stock solutions in distilled water and were subsequently diluted to working concentrations in assay buffer. Plates were then incubated for a further 60 minutes, at room temperature, before being read again on the Envision reader using the same parameters as previously used. The data was analysed by subtracting the background time zero data from that generated following the final 60 minute incubate and the percent inhibition compared to the maximum and minimum assay controls was determined. Sigmoid curves were fitted using Origin 7.5 Client software and IC50 values were determined.

T1 sequence (P49327 whole entry): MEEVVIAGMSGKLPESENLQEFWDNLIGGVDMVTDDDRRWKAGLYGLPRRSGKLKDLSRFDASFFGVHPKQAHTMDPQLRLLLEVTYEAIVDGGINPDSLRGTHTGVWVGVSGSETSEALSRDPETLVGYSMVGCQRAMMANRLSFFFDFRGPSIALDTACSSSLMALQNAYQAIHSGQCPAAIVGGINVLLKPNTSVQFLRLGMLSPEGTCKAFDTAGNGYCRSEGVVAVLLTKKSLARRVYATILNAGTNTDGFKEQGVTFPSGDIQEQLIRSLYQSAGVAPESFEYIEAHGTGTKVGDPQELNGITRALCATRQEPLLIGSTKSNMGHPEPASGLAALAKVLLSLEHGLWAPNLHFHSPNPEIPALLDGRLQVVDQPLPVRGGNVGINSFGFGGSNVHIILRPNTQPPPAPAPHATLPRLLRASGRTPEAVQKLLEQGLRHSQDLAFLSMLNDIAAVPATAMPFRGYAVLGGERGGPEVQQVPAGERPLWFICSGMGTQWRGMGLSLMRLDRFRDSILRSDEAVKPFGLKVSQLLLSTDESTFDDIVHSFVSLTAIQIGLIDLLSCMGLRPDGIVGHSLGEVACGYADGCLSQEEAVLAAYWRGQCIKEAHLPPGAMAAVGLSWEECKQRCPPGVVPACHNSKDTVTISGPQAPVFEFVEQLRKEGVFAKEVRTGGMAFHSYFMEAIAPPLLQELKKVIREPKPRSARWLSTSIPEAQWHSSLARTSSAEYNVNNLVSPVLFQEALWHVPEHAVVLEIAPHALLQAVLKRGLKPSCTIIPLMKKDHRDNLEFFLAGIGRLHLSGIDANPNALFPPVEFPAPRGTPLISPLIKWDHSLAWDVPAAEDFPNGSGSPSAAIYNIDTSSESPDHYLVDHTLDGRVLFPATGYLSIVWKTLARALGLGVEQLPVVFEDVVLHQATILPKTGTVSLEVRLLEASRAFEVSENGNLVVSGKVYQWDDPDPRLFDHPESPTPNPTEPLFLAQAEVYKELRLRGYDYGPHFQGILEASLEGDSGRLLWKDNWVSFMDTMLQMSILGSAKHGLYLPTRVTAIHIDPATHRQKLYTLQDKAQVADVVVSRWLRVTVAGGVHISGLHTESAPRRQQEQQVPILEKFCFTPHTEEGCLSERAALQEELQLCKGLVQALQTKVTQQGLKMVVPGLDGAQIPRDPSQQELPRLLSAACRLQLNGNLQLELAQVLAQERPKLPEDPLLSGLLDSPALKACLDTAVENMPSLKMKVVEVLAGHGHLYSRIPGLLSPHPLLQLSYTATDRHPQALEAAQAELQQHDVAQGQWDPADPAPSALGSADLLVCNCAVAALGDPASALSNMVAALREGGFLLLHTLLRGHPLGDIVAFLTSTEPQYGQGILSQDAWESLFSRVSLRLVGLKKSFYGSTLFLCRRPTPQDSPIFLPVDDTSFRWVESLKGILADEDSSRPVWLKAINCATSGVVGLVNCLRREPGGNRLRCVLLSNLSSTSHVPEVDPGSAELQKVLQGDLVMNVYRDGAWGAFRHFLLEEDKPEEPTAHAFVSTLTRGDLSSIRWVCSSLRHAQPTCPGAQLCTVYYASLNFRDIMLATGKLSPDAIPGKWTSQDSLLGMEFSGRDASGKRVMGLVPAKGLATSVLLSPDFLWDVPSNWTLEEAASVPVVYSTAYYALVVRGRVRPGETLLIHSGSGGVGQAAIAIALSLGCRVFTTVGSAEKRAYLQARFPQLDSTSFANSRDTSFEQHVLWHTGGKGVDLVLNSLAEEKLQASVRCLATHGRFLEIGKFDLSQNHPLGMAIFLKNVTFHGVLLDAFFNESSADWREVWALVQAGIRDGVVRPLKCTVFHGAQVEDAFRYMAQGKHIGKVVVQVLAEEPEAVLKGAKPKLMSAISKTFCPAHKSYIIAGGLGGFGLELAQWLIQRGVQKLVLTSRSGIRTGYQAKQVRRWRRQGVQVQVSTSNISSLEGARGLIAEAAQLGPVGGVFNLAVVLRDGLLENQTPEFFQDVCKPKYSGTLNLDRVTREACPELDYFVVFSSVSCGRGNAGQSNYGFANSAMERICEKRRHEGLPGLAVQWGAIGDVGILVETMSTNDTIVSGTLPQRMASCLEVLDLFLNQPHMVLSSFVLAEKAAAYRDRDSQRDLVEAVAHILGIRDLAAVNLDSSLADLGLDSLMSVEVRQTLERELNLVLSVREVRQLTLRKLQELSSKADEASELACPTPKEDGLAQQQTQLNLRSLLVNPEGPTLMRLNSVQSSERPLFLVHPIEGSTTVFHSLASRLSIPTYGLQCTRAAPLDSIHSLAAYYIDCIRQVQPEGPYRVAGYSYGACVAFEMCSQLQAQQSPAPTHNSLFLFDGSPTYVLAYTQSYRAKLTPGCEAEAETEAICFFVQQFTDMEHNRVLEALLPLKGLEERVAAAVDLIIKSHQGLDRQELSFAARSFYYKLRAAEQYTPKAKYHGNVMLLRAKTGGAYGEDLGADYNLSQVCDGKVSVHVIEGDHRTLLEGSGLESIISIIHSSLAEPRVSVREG

Question: `Cc1ccc(C(=O)N2CCC(c3ccc(C#N)cc3)CC2)cc1NC(=O)NCCNC(=O)OCc1ccccc1` [Example 81, Benzyl N-[2-[[5-[4-(4-cyanophenyl)piperidine-1-carbonyl]-2-methyl-phenyl]carbamoylamino]ethyl]carbamate] was tested. Which inhibition at 100 µM did it give?
Answer: The inhibition at 100 µM was 88.2%.

Question: Which inhibition at 100 µM does the source give for `COc1ccc(CCNC(=O)Nc2cc(C(=O)N3CCC(c4ccc(C#N)cc4)CC3)ccc2C)cc1` [Example 64, 1-[5-[4-(4-cyanophenyl)piperidine-1-carbonyl]-2-methyl-phenyl]-3-[2-(4-methoxyphenyl)ethyl]urea] here?
Answer: Its inhibition at 100 µM is 94%.

Question: Which inhibition at 100 µM does the source give for `Cc1ccc(C(=O)N2CCC(c3ccc(C#N)cc3)CC2)cc1NC(=O)N[C@H]1CCCC[C@H]1NS(C)(=O)=O` (relative stereo) [Example 307, 1-[5-[4-(4-cyanophenyl)piperidine-1-carbonyl]-2-methyl-phenyl]-3-[(cis)-2-methanesulfonamidocyclohexyl]urea] here?
Answer: Its inhibition at 100 µM is 96.1%.

Question: With `CCc1ccc(C(=O)N2CCC(c3ccc(C#N)cc3)CC2)cc1NC(=O)NC1COC1` [Example 298, 1-[5-[4-(4-cyanophenyl)piperidine-1-carbonyl]-2-ethyl-phenyl]-3-(oxetan-3-yl)urea] as the compound, how does the inhibition at 100 µM read?
Answer: Its inhibition at 100 µM is 95.8%.

Question: Which inhibition at 100 µM does the source give for `Cc1ccc(C(=O)N2CCC(c3ccc(C#N)cc3)CC2)cc1NC(=O)NCCc1ccccn1` [Example 60, 1-[5-[4-(4-cyanophenyl)piperidine-1-carbonyl]-2-methyl-phenyl]-3-(2-pyridin-2-ylethyl)urea] here?
Answer: Its inhibition at 100 µM is 95.3%.

Question: `CC(=O)N1CCCC(NC(=O)Nc2cc(C(=O)N3CCC(c4ccc(C#N)cc4)CC3)ccc2C)C1` (centres unmarked) [Example 390, 3-(1-acetylpiperidin-3-yl)-1-[5-[4-(4-cyanophenyl)piperidine-1-carbonyl]-2-methylphenyl]urea] was tested. Which inhibition at 100 µM did it give?
Answer: The inhibition at 100 µM was 90.6%.

Question: With `Cc1ccc(C(=O)N2CCC(c3ccc(C#N)cc3)CC2)cc1NC(=O)NCc1ccc(F)c(F)c1` [Example 56, 1-[5-[4-(4-cyanophenyl)piperidine-1-carbonyl]-2-methyl-phenyl]-3-[(3,4-difluorophenyl)methyl]urea] as the compound, how does the inhibition at 100 µM read?
Answer: The inhibition at 100 µM was 105%.

Question: How did the inhibition at 100 µM turn out when `Cc1ccc(C(=O)N2CCC(c3ccc(C#N)cc3)CC2)cc1NC(=O)NC1CN2CCC1CC2` (stereo in doubt) [Example 270, 3-[(8S)-1-azabicyclo[2.2.2]oct-8-yl]-1-[5-[4-(4-cyanophenyl)piperidine-1-carbonyl]-2-methyl-phenyl]urea] was run?
Answer: The inhibition at 100 µM was 89.4%.

Question: `CCCN(C(=O)Nc1cc(C(=O)N2CCC(c3ccc(C#N)cc3)CC2)ccc1C)C1CCS(=O)(=O)C1` (centres unmarked) [Example 397, 3-[5-[4-(4-cyanophenyl)piperidine-1-carbonyl]-2-methylphenyl]-1-(1,1-dioxothiolan-3-yl)-1-propylurea] was tested. Which inhibition at 100 µM did it give?
Answer: Its inhibition at 100 µM is 63.7%.

Question: `Cc1ccc(C(=O)N2CCC(c3ccc(C#N)cc3)CC2)cc1NC(=O)NCCN(C)S(=O)(=O)C(C)C` [Example 214, 1-[5-[4-(4-cyanophenyl)piperidine-1-carbonyl]-2-methyl-phenyl]-3-[2-(methyl-propan-2-ylsulfonyl-amino)ethyl]urea] was tested. Which inhibition at 100 µM did it give?
Answer: Its inhibition at 100 µM is 89.8%.

Question: With `Cc1ccc(C(=O)N2CCC(c3ccc(C#N)cc3)CC2)cc1NC(=O)N1CC(NS(=O)(=O)N(C)C)C1` [Example 314, N-[5-[4-(4-cyanophenyl)piperidine-1-carbonyl]-2-methyl-phenyl]-3-(dimethylsulfamoylamino)azetidine-1-carboxamide] as the compound, how does the inhibition at 100 µM read?
Answer: The inhibition at 100 µM was 87.4%.

Question: For `Cc1ccc(C(=O)N2CCC(c3ccc(C#N)cc3)CC2)cc1NC(=O)N[C@@H]1CCN(C(=O)OC(C)(C)C)C1` [Example 209, tert-butyl (3R)-3-[[5-[4-(4-cyanophenyl)piperidine-1-carbonyl]-2-methyl-phenyl]carbamoylamino]pyrrolidine-1-carboxylate], which inhibition at 100 µM is on record?
Answer: Its inhibition at 100 µM is 89.7%.

Question: How did the inhibition at 100 µM turn out when `Cc1ccc(C(=O)N2CCC(c3ccc(C#N)cc3)CC2)cc1NC(=O)NCCN` [Example 103, 3-(2-aminoethyl)-1-[5-[4-(4-cyanophenyl)piperidine-1-carbonyl]-2-methyl-phenyl]urea] was run?
Answer: The inhibition at 100 µM was 91.8%.

Question: For `Cc1ccc(C(=O)N2CCC(c3ccc(C#N)cc3)CC2)cc1NC(=O)NCCCNC(=O)OC(C)(C)C` [Example 206, tert-butyl N-[3-[[5-[4-(4-cyanophenyl)piperidine-1-carbonyl]-2-methyl-phenyl]carbamoylamino]propyl]carbamate], which inhibition at 100 µM is on record?
Answer: The inhibition at 100 µM was 83.8%.

Question: Which inhibition at 100 µM does the source give for `CCNC(=O)Nc1ccc(C)c(C(=O)N2CCC(c3ccc(C#N)cc3)CC2)c1` [Example 19, 3-[3-[4-(4-cyanophenyl)piperidine-1-carbonyl]-4-methyl-phenyl]-1-ethyl-urea] here?
Answer: The inhibition at 100 µM was 79.9%.

Question: How did the inhibition at 100 µM turn out when `Cc1ccc(C(=O)N2CCC(c3ccc(C#N)cc3)CC2)cc1NC(=O)N[C@H]1CCNC1` [Example 213, 1-[5-[4-(4-cyanophenyl)piperidine-1-carbonyl]-2-methyl-phenyl]-3-[(3S)-pyrrolidin-3-yl]urea] was run?
Answer: Its inhibition at 100 µM is 88.6%.

Question: `CCC(=O)NCCN(C)C(=O)Nc1cc(C(=O)N2CCC(c3ccc(C#N)cc3)CC2)ccc1C` [Example 353, N-[2-[[5-[4-(4-cyanophenyl)piperidine-1-carbonyl]-2-methyl-phenyl]carbamoyl-methyl-amino]ethyl]propanamide] was tested. Which inhibition at 100 µM did it give?
Answer: Its inhibition at 100 µM is 78.4%.

Question: For `Cc1ccc(C(=O)N2CCC(c3ccc(C#N)cc3)CC2)cc1NC(=O)NCCC(=O)Nc1cnoc1C` [Example 241, 3-[[5-[4-(4-cyanophenyl)piperidine-1-carbonyl]-2-methyl-phenyl]carbamoylamino]-N-(5-methyl-1,2-oxazol-4-yl)propanamide], which inhibition at 100 µM is on record?
Answer: Its inhibition at 100 µM is 92.4%.

Question: For `Cc1ccc(C(=O)N2CCC(c3ccc(C#N)cc3)CC2)cc1NC(=O)N1CCCC1` [Example 10, N-[5-[4-(4-cyanophenyl)piperidine-1-carbonyl]-2-methyl-phenyl]pyrrolidine-1-carboxamide], which inhibition at 100 µM is on record?
Answer: The inhibition at 100 µM was 83.5%.

Question: How did the inhibition at 100 µM turn out when `COCCCCNC(=O)Nc1cc(C(=O)N2CCC(c3ccc(C#N)cc3)CC2)ccc1C` [Example 252, 1-[5-[4-(4-cyanophenyl)piperidine-1-carbonyl]-2-methyl-phenyl]-3-(4-methoxybutyl)urea] was run?
Answer: Its inhibition at 100 µM is 99.4%.

Question: With `COc1ccc(NCCNC(=O)Nc2cc(C(=O)N3CCC(c4ccc(C#N)cc4)CC3)ccc2C)cc1` [Example 101, 1-[5-[4-(4-cyanophenyl)piperidine-1-carbonyl]-2-methyl-phenyl]-3-[2-[(4-methoxyphenyl)amino]ethyl]urea] as the compound, how does the inhibition at 100 µM read?
Answer: Its inhibition at 100 µM is 90.7%.

Question: How did the inhibition at 100 µM turn out when `CCS(=O)(=O)NCCN(C)C(=O)Nc1cc(C(=O)N2CCC(c3ccc(C#N)cc3)CC2)ccc1C` [Example 402, 3-[5-[4-(4-cyanophenyl)piperidine-1-carbonyl]-2-methylphenyl]-1-[2-(ethylsulfonylamino)ethyl]-1-methylurea] was run?
Answer: The inhibition at 100 µM was 64.6%.

Question: `C#CC(C)(C)NC(=O)Nc1cc(C(=O)N2CCC(c3ccc(C#N)cc3)CC2)ccc1C` [Example 384, 1-[5-[4-(4-cyanophenyl)piperidine-1-carbonyl]-2-methylphenyl]-3-(2-methylbut-3-yn-2-yl)urea] was tested. Which inhibition at 100 µM did it give?
Answer: The inhibition at 100 µM was 97.6%.

Question: For `CC(=O)N(C)CCNC(=O)Nc1cc(C(=O)N2CCC(c3ccc(C#N)cc3)CC2)ccc1C` [Example 120, N-[2-[[5-[4-(4-cyanophenyl)piperidine-1-carbonyl]-2-methyl-phenyl]carbamoylamino]ethyl]-N-methyl-acetamide], which inhibition at 100 µM is on record?
Answer: The inhibition at 100 µM was 68.3%.

Question: With `CCC(=O)NCCNC(=O)Nc1cc(C(=O)N2CCC(c3ccc(C#N)cc3)CC2)ccc1C` [Example 111, N-[2-[[5-[4-(4-cyanophenyl)piperidine-1-carbonyl]-2-methyl-phenyl]carbamoylamino]ethyl]propanamide] as the compound, how does the inhibition at 100 µM read?
Answer: The inhibition at 100 µM was 95.6%.

Question: With `Cc1ccc(C(=O)N2CCC(c3ccc(C#N)cc3)CC2)cc1NC(=O)NCCNC(=O)CC(=O)N(C)C` [Example 231, N-[2-[[5-[4-(4-cyanophenyl)piperidine-1-carbonyl]-2-methyl-phenyl]carbamoylamino]ethyl]-N′,N′-dimethyl-propanediamide] as the compound, how does the inhibition at 100 µM read?
Answer: The inhibition at 100 µM was 90.3%.

Question: How did the inhibition at 100 µM turn out when `Cc1ccc(C(=O)N2CCC(c3ccc(C#N)cc3)CC2)cc1NC(=O)NCCNC(=O)C(C)C` [Example 112, N-[2-[[5-[4-(4-cyanophenyl)piperidine-1-carbonyl]-2-methyl-phenyl]carbamoylamino]ethyl]-2-methyl-propanamide] was run?
Answer: The inhibition at 100 µM was 94.3%.

Question: How did the inhibition at 100 µM turn out when `Cc1ccc(C(=O)N2CCC(c3ccc(C#N)cc3)CC2)cc1NC(=O)NC(C)CO` (centres unmarked) [Example 182, 1-[5-[4-(4-cyanophenyl)piperidine-1-carbonyl]-2-methyl-phenyl]-3-(1-hydroxypropan-2-yl)urea] was run?
Answer: The inhibition at 100 µM was 96.2%.

Question: How did the inhibition at 100 µM turn out when `CCOCCCNC(=O)Nc1ccc(C)c(C(=O)N2CCC(c3ccc(C#N)cc3)CC2)c1` [Example 416, 3-[3-[4-(4-cyanophenyl)piperidine-1-carbonyl]-4-methylphenyl]-1-(3-ethoxypropyl)urea] was run?
Answer: The inhibition at 100 µM was 90.8%.
